As usually defined, the inhibition is the change of the read-out against control, counted positive when it falls. One may read the EC50 as the midpoint of the concentration-response curve. As a reminder, the CC50 is the concentration at which the toxic effect on the cells reaches its halfway point. Low values mean greater toxicity to the cells, high ones lower toxicity to the cells.

Structures are written as SMILES. Values after ≈ are worked out from the molar mass of the structure shown. Active and inactive are the calls of the source. The calls are words filed in the database; no cut-off is given here.

The test system of data set [1] is Hepatitis C virus. Description: Antiviral activity against Hepatitis C virus subtype 1a infected in human HuH7 cells at 20 ug/mL after 2 days by q-PCR analysis. The format is functional, Hepacivirus hominis. The following applies: Huh-7, 48 h.
The subject of data set [2] is Hepatitis C virus. The data set is described as follows: Antiviral activity against Hepatitis C virus subtype 1a infected in human HuH7 cells after 2 days by q-PCR analysis. The format is functional, organism-based, Hepacivirus hominis. The following applies: Huh-7, 48 h.
Data set [3] concerns Duck hepatitis B virus. Description: Antiviral activity against Duck hepatitis B virus infected in pekin duck primary hepatocytes assessed as inhibition of viral replication at 10 ug/mL. The format is functional. The settings on record: Hepatocyte, in Anas platyrhynchos.
Data set [4] relates to Hepatitis B virus. Description: Antiviral activity against Hepatitis B virus infected in human HepG2(2.2.15) cells assessed as inhibition of viral replication. The format is functional, organism-based.
Data set [5] relates to Duck hepatitis B virus. The data set is described as follows: Antiviral activity against Duck hepatitis B virus infected in pekin duck primary hepatocytes assessed as inhibition of viral replication. The format is functional, organism-based. The following applies: Hepatocyte.
Data set [6] is described as follows: Cytotoxicity against human HuH7 cells after 2 days by XTT assay. Type of data set: cell-based, Huh-7. In general terms: Tetrazolium dyes change colour on reduction, which living cells bring about.
Data set [7] relates to Hepatitis B virus. The data set is described as follows: Antiviral activity against Hepatitis B virus infected in human HepG2(2.2.15) cells assessed as inhibition of viral replication at 10 ug/mL. Type of data set: functional.
Data set [8] deals with Hepatitis B virus. Description: Antiviral activity against Hepatitis B virus infected in human HepG2(2.2.15) cells assessed as inhibition of viral replication at 0.5 to 1 ug/mL. Type of data set: functional.
Data set [9] concerns Duck hepatitis B virus. Description: Antiviral activity against Duck hepatitis B virus infected in pekin duck primary hepatocytes assessed as inhibition of viral replication at 0.5 to 1 ug/mL. The format is functional, Hepatocyte.
In data set [10] the test system is Hepatitis C virus. The data set is described as follows: Antiviral activity against Hepatitis C virus subtype 1a infected in human HuH7 cells at 10 ug/mL after 2 days by q-PCR analysis. Type of data set: functional, Hepacivirus hominis. The following applies: Huh-7, 48 h.
For data set [11], the system named is Hepatitis C virus. Description: Antiviral activity against Hepatitis C virus subtype 1a infected in human HuH7 cells at 20 to 50 ug/mL after 2 days by q-PCR analysis. Type of data set: functional, Hepacivirus hominis, Huh-7.
Data set [12] has as its system Hepatitis C virus. Description: Ratio of ribavirin EC50 to compound EC50 for Hepatitis C virus subtype 1a. The format is functional, Hepacivirus hominis.
Data set [13] concerns Hepatitis C virus. Description: Antiviral activity against Hepatitis C virus subtype 1a infected in human HuH7 cells at 5 ug/mL after 2 days by q-PCR analysis. The settings on record: Huh-7, 48 h. Type of data set: functional, Hepacivirus hominis.
The subject of data set [14] is Hepatitis C virus. The data set is described as follows: Potentiation of ribavirin antiviral activity against Hepatitis C virus subtype 1a infected in human HuH7 cells at 5 ug/mL after 2 days by q-PCR analysis. The format is functional, organism-based. The following applies: Hepacivirus hominis, Huh-7.

`Cc1cn([C@H]2CC=C(C(=O)O)O2)c(=O)[nH]c1=O`: the inhibition at 20 µg/mL in the data set with Hepatitis C virus [1] worked out at 50%. Besides, the EC50 in the data set with Hepatitis C virus [2] amounted to 20 µg/mL (≈ 84 µM); in the data set with Hepatitis B virus [4], 5 µg/mL (≈ 21 µM); in the data set on Duck hepatitis B virus [5], 2.5 µg/mL (≈ 10.5 µM). For the same molecule, the inhibition at 10 µg/mL in the data set with Duck hepatitis B virus [3] came out at 65%; in the data set with Hepatitis B virus [7] it was 61%. The CC50 at 48 h in data set [6] is > 250 µg/mL.

Consider `N=c1ccn([C@H]2CC[C@@H](C(=O)O)O2)c(=O)[nH]1`, for which 20 µg/mL produced 0% inhibition in the data set on Hepatitis C virus [1]. Moreover, the inhibition at 10 µg/mL is 80% in the data set with Duck hepatitis B virus [3] and 60% in the data set on Hepatitis B virus [7]. Also, the EC50 was 5 µg/mL (≈ 22.2 µM) in the data set on Hepatitis B virus [4] and 0.5 µg/mL (≈ 2.22 µM) in the data set on Duck hepatitis B virus [5]. Besides, the CC50 at 48 h in data set [6] was > 250 µg/mL.

For the molecule `Nc1ccn([C@@H]2CS[C@H](CO)O2)c(=O)n1` [LAMIVUDINE], the results for the “inhibition (INH)” value in the data set on Hepatitis B virus [8] and in the data set with Duck hepatitis B virus [9] were 88% and 96%, respectively.

Turning to `NC(=O)c1ncn([C@@H]2O[C@H](CO)[C@@H](O)[C@H]2O)n1` [RIBAVIRIN], the EC50 in the data set on Hepatitis C virus [2] turned out to be 20 µg/mL (≈ 81.9 µM). This molecule also gave an inhibition at 10 µg/mL in the data set on Hepatitis C virus [10] of 35%. The “inhibition (INH)” value with Hepatitis C virus [11] is reported as 50%.

In the data set with Hepatitis C virus [1], `O=C(O)[C@@H]1CC[C@H](n2ccc(=O)[nH]c2=O)O1` came in with an inhibition at 20 µg/mL of 0%. The inhibition at 10 µg/mL in the data set on Duck hepatitis B virus [3] and with Hepatitis B virus [7] was 0% each time. Further, the CC50 at 48 h in [6] is > 250 µg/mL.

The molecule `CC(=O)O[C@H]1C[C@H](n2cc(F)c(=O)[nH]c2=O)O[C@@H]1C(=O)O` had an inhibition at 20 µg/mL with Hepatitis C virus [1] of 0%. The inhibition at 10 µg/mL in the data set with Duck hepatitis B virus [3] and in the data set with Hepatitis B virus [7] was 0% each time. In addition, the CC50 at 48 h in data set [6] was > 250 µg/mL.

With `COC(=O)[C@@H]1CC[C@H](n2ccc(N)nc2=O)O1`, the “Ratio EC50” value in the data set on Hepatitis C virus [12] is listed as >2. The results for the EC50 in the data set with Hepatitis C virus [2], with Hepatitis B virus [4] and with Duck hepatitis B virus [5] were 10 µg/mL (≈ 41.8 µM), 5 µg/mL (≈ 20.9 µM) and 0.5 µg/mL (≈ 2.09 µM), respectively. The inhibition at 10 µg/mL in the data set with Duck hepatitis B virus [3] stood at 90%; in the data set with Hepatitis B virus [7], 63%; in the data set on Hepatitis C virus [10], 50%. In addition, at 5 µg/mL the inhibition with Hepatitis C virus [13] was 38%. In addition, in [6], the CC50 at 48 h is > 250 µg/mL. The result in the data set on Hepatitis C virus [14] was Active.

For the molecule `Cc1cn([C@H]2C[C@H](N=[N+]=[N-])[C@@H](C(=O)O)O2)c(=O)[nH]c1=O`, the inhibition at 20 µg/mL in the data set with Hepatitis C virus [1] amounted to 30%. Also, the inhibition at 10 µg/mL amounted to 55% with Duck hepatitis B virus [3] and 50% in the data set on Hepatitis B virus [7]. Besides, the EC50 came to 10 µg/mL (≈ 35.6 µM) in the data set with Hepatitis B virus [4] and 5 µg/mL (≈ 17.8 µM) in the data set with Duck hepatitis B virus [5]. The CC50 at 48 h in [6] is > 250 µg/mL.

The molecule `[N-]=[N+]=N[C@H]1C[C@H](n2ccc(=O)[nH]c2=O)O[C@@H]1C(=O)O` came in with an inhibition at 20 µg/mL in the data set with Hepatitis C virus [1] of 40%. Also, the values for the EC50 in the data set on Hepatitis C virus [2], with Hepatitis B virus [4] and in the data set on Duck hepatitis B virus [5] were > 20 µg/mL, 10 µg/mL (≈ 37.4 µM) and 5 µg/mL (≈ 18.7 µM), respectively. Also, the inhibition at 10 µg/mL in the data set with Duck hepatitis B virus [3] is 62%; in the data set on Hepatitis B virus [7], 50%. Also, the CC50 at 48 h in data set [6] is > 250 µg/mL.

As to `Cc1cn([C@H]2C=C[C@@H](C(=O)O)O2)c(=O)[nH]c1=O`, the inhibition at 20 µg/mL in the data set on Hepatitis C virus [1] is 0%. Moreover, the inhibition at 10 µg/mL was 63% in the data set with Duck hepatitis B virus [3] and 58% with Hepatitis B virus [7]. The EC50 came to 5 µg/mL (≈ 21 µM) in the data set on Hepatitis B virus [4] and 2.5 µg/mL (≈ 10.5 µM) with Duck hepatitis B virus [5]. Also, the half-maximal cytotoxic concentration (CC50) at 48 h in [6] was > 250 µg/mL.

Source of the values: ChEMBL document CHEMBL2150904, “A new class of pyrimidine nucleosides: inhibitors of hepatitis B and C viruses” (Bioorg Med Chem Lett, 2012).
